Laboratory results from patent publication US6787318B1, “Assay for evaluating the therapeutic effectiveness of agents in reducing Alzheimer's disease pathology” (Roskamp Research Institute, LLC, priority 1999, dated 2004).

How the values were obtained:
CD40 [1] = assay: CD40 expression in HAEC, cell-ELISA (CELISA); assay type: cell-based, human
Description: (§1) In vitro measurement of Aβ-induced changes in expression of the inflammatory cell-surface molecules CD40 and […] in cultured HAEC and HASM cells was performed using a slightly modified ABC-based cell-ELISA (CELISA). […] After PBS washes, 4% neutral formalin solution (Sigma) was used for fixation of the cells. Following quenching of the endogenous peroxidase activity with 3% H2O2 and routine blocking of non-specific binding, the biotinylated specific secondary antibodies against the primary antibodies (goat anti-mouse or anti-rabbit IgG) were applied. The combination of EXTRAVIDIN® Proxidase and the subsequent color reaction was performed strictly according to the manufacturer's instructions in the EXTRAVIDIN® Peroxidase Staining Kit (Sigma). The absorbance of 405 nm was then measured using a microplate reader (SPECTRAmax 250, Molecular Devices). The optical density (O.D.) value for the wells in the absence of the primary antibody for each group was considered as background and subtracted as the blank. In addition, stimulation with IFN-γ for CD40 was included as a positive control in the appropriate plate. Since CD45 is not expressed by endothelial or smooth muscle cells, the assays for expression of CD45 in these Aβ-treated cells were used as negative controls throughout the experiment. In addition, to evaluate the degree of cell death or proliferation in the Aβ-treated, cells, parallel experiments were performed using the MTS (3-(4,5-dimethylthiazol-2-yl)-5-(3-carboxymethoxyphenyl)-2-(4-sulfophenyl)-2H-tetrazolium) cell-proliferation kit (Promega).

IFN-γR [2] = assay: IFN-γR expression in HAEC, cell-ELISA (CELISA) and Western blotting; assay type: cell-based, human
Description: as §1
(§2) Activation of CD40 signalling can be achieved by stimulation with either CD40L or certain anti-CD40 mAbs. Since synthetic CD40L is not commercially available, one of the anti-CD40 mAbs (clone 3/23), which has been reported to activate CD40 signalling, was used to mimic the effect of interaction of CD40-CD40L. All Aβ-treated cells were incubated with 1 μg/ml anti-CD40 mAb […]) for four hours followed by CELISA.
The total protein was estimated using the Bio-Rad protein assay. An aliquot corresponding to 100 μg of total protein of each sample was separated by SDS/PAGE (polyacrylamide gel electrophoresis) and transferred electrophoretically to PVDF filters. Non-specific binding of antibody was blocked with 5% non-fat dry milk, in 20 mM Tris/HCl, pH 7.5/150 mM NaCl/0.1% Triton X-100. Immunoblotting was carried out with the appropriate antibody followed by alkaline phosphatase-conjugated secondary anti-immunoglobulin antibodies. These were then developed by the chemiluminescence method (Bio-Rad).

HAEC = assay: Cytotoxicity in HAEC, LDH release assay; assay type: cell-based, human; details: 500 nM, 48 hours
Description: Previous reports have shown that overexpression of amyloid precursor protein or exogenous addition of Aβ peptides can have cytotoxic effects on cultured endothelial cells.
In order to determine if ligation of endothelial CD40 could result in production of pro-inflammatory cytokines, IL-1β was measured following treatment with IFN-γ or Aβ peptides. […] There was not observe a significant induction of endothelial cell death by LDH release assay between treatment groups during the time course examined by IL-1β release assay (by One-way ANOVA, F(6,41)=0.322, p=0.921), supporting the hypothesis that stimulation of the CD40 pathway in endothelial cells results in an early pro-inflammatory cascade which later promotes cell injury, rather than induce cytotoxicity acutely.

IFN-γR [3] = assay: IFN-γR expression in HASM cells, cell-ELISA (CELISA); assay type: cell-based, human; details: Aβ-treated cells, 1 μg/ml mAb, four hours
Description: as §1, §2

IL-1β [4] = assay: IL-1β secretion from HAEC, ELISA; assay type: cell-based, human; details: 24 hours
Description: The assay for either IL-1β or IFN-γ was performed in strict accordance with the manufacturer's instructions for the respective assay kits.
The resulting cell culture media were assayed for IL-1β or IFN-γ using ELISA. […] The lowest effective concentration was determined to be 100 nM for IFN-γ ([…]). The lowest effective concentration was determined to be 100 nM for IFN-γ (p<0.01) and 1 μM for IL-1β (p<0.01).

IL-1β [5] = assay: Human IL-1β release ELISA, HAEC with or without CD40 ligation; assay type: cell-based
Description: To examine if endothelial CD40 would be functional, cultured HAEC were plated at 5×10^4 cells/well in 6-well tissue culture plates (Nunc-Immuno™ Plate, Denmark) and incubated at 37° C. with human CD40L recombinant protein (CD40L, 0.5 ug/mL, kindly provided by Dr. Jean-Yves Bonnefoy, Glaxo Institute for Molecular Biology, Geneva) in fresh cultured media for eight hours, and cell-free supernatants were collected for IL-1β release assay. The assay for human IL-1β was performed in strict accordance with the manufacturer's instruction using the human Predicta™ IL-1β Kit (Genzyme). Absorbance at 450 nm was measured using a microplate spectrophotometer (SPECTRAmax 250, Molecular Devices, Sunnyvale, Calif.).
A second group of cells was subjected to these same treatments and incubated with CD40L ([…]) for eight hours following the initial 48 hour treatment period. IL-1β release was then quantified using a human IL-1β ELISA kit as described in materials and methods.

CD40 [6] = assay: CD40 cell-surface expression on HAEC, flow cytometry; assay type: cell-based, human; details: Aβ 500 nM, IFN-γ 10 U/mL; vs control peptide or Aβ-free
Description: Cultured HAEC were treated as described above. […] Cells were analyzed on a FACScan flow cytometer (Becton-Dickinson, Mountain View, Calif.) using LYSIS-II software. CD40-expressing cells are defined as percentage of CD40-staining cells minus the percentage of IgG1-staining cells.
CD40 expression between control peptide-treated and Aβ-free AEC was relatively similar.

## Aβ1-42: amyloid β peptide 1-42, freshly solubilized
CD40 [1]
  CD40 expression in HAEC, dose dependence: dose-dependently increase CD40 expression
CD40 [1]; HAEC
  lowest effective concentration for CD40 expression: 100 nM
IFN-γR [2]; 1 μg/ml mAb (3/23), four hours
  Aβ-induced IFN-γR expression in HAEC on CD40 ligation: significant effect
IFN-γR [2]; 48 hours
  IFN-γR expression in HAEC: preferentially activates endothelial cells rather than smooth muscle cells
HAEC
  cell injury, LDH release: no significant induction of cell injury
IFN-γR [3]
  IFN-γR expression in HASM cells on CD40 ligation by mAb (3/23): additive
IL-1β [4]
  lowest effective concentration for IL-1β secretion: 1 µM
IL-1β [4]; increasing concentrations
  IL-1β secretion, dose dependence: increases the secretion of IL-1β and IFN-γ in a dose-dependent manner
IL-1β [5]; 48 hour pre-treatment, then CD40L for eight hours
  IL-1β release following CD40 ligation: synergistic effect
IL-1β [5]; Aβ 500 nM, IFN-γ 10 U/mL, 48 hours
  IL-1β release in the absence of CD40L stimulation: not sufficient to elicit IL-1β
CD40 [6]
  CD40 cell-surface expression, flow cytometry: significantly induce CD40 expression
